Test results from ChEMBL document CHEMBL5038626 (Eur J Med Chem, 2022).
Values after ≈ are worked out from the molar mass of the structure shown. Blank lines part the entries; values can stand above or below the compound they belong to. Active and inactive are the calls of the source. The rule behind the calls is not given here.

Legend:
Topoisomerase IV = Topoisomerase IV (Staphylococcus aureus, UniProt P0C1S7+P0C1U9); experiment: Inhibition of Staphylococcus aureus topoisomerase 4 assessed as reduction in decatenation using kDNA as substrate incubated for 30 mins by fluorimetric assay; assay type: protein-complex assay
DNA gyrase = DNA gyrase (Escherichia coli, UniProt P0AES4+P0AES6); experiment: Inhibition of Escherichia coli DNA gyrase supercoiling activity using pBR322 as substrate incubated for 30 mins by fluorimetric assay; assay type: protein-complex assay
Staphylococcus aureus = experiment: Antibacterial activity against Staphylococcus aureus Newman assessed as inhibition of bacterial growth incubated for 24 hrs by broth microdilution method; assay type: functional
Escherichia coli = experiment: Antibacterial activity against Escherichia coli ATCC 8739 assessed as inhibition of bacterial growth incubated for 24 hrs by broth microdilution method; assay type: functional
[1] = Toxicity in Swiss albino mouse assessed as clonic convulsions at 0.6 mmol/Kg, iv administered as single dose observed for 6 hrs; assay type: organism-based; details: in vivo
Mus musculus = experiment: Effect on GABA protein expression in Swiss albino mouse assessed as decrease in GABA protein expression at 0.6 mmol/Kg, iv administered as single dose by western blot analysis; assay type: functional, organism-based

Compound: Cc1cc(NS(=O)(=O)c2ccc(NC(=O)CN3CCN(c4cc5c(cc4F)c(=O)c(C(=O)O)cn5C4CC4)CC3)cc2)no1
IC50 (Topoisomerase IV): 4660 nM
IC50 (DNA gyrase): 1330 nM
MIC (Staphylococcus aureus): 3.2 µM (≈ 2 µg/mL)
MIC (Escherichia coli): 7.47 µM (≈ 4.67 µg/mL)

MIC (Staphylococcus aureus): 1.36 µM (≈ 0.45 µg/mL)
MIC (Escherichia coli): 0.255 µM (≈ 0.0845 µg/mL)
Compound: O=C(O)c1cn(C2CC2)c2cc(N3CCNCC3)c(F)cc2c1=O [CIPROFLOXACIN]

Compound: O=C(O)c1cn(C2CC2)c2cc(N3CCN(/N=N/c4ccc(S(=O)(=O)Nc5ncccn5)cc4)CC3)c(F)cc2c1=O
IC50 (Topoisomerase IV): 9500 nM
IC50 (DNA gyrase): 12800 nM
MIC (Staphylococcus aureus): 0.422 µM (≈ 0.25 µg/mL)
MIC (Escherichia coli): 0.013 µM (≈ 0.0077 µg/mL)

Compound: Cc1cc(NS(=O)(=O)c2ccc(NC(=O)CCN3CCN(c4cc5c(cc4F)c(=O)c(C(=O)O)cn5C4CC4)CC3)cc2)no1
IC50 (Topoisomerase IV): 3910 nM
IC50 (DNA gyrase): 6310 nM
MIC (Staphylococcus aureus): 1.04 µM (≈ 0.667 µg/mL)
MIC (Escherichia coli): 5.22 µM (≈ 3.33 µg/mL)

Compound: CC(C(=O)Nc1ccc(S(=O)(=O)Nc2cnc3ccccc3n2)cc1)N1CCN(c2cc3c(cc2F)c(=O)c(C(=O)O)cn3C2CC2)CC1 (stereo unspecified)
IC50 (Topoisomerase IV): 1210 nM
IC50 (DNA gyrase): 1440 nM
MIC (Staphylococcus aureus): 0.729 µM (≈ 0.5 µg/mL)
MIC (Escherichia coli): 1.94 µM (≈ 1.33 µg/mL)

Compound: O=C(CN1CCN(c2cc3c(cc2F)c(=O)c(C(=O)O)cn3C2CC2)CC1)Nc1ccc(S(=O)(=O)Nc2cnc3ccccc3n2)cc1
IC50 (Topoisomerase IV): 350 nM
IC50 (DNA gyrase): 550 nM
Activity [1]: Non-Toxic
Activity (Mus musculus): Active
MIC (Staphylococcus aureus): 1.99 µM (≈ 1.33 µg/mL)
MIC (Escherichia coli): 0.744 µM (≈ 0.5 µg/mL)

Compound: O=C(O)c1cn(C2CC2)c2cc(N3CCN(/N=N/c4ccc(S(=O)(=O)Nc5cncc(Cl)n5)cc4)CC3)c(F)cc2c1=O
IC50 (Topoisomerase IV): 12800 nM
IC50 (DNA gyrase): 13000 nM
MIC (Staphylococcus aureus): 1.59 µM (≈ 1 µg/mL)
MIC (Escherichia coli): 1.33 µM (≈ 0.833 µg/mL)

Compound: CC(C(=O)Nc1ccc(S(N)(=O)=O)cc1)N1CCN(c2cc3c(cc2F)c(=O)c(C(=O)O)cn3C2CC2)CC1 (stereo unspecified)
IC50 (Topoisomerase IV): 6660 nM
IC50 (DNA gyrase): 5650 nM
MIC (Staphylococcus aureus): 1.5 µM (≈ 0.834 µg/mL)
MIC (Escherichia coli): 0.897 µM (≈ 0.5 µg/mL)

Compound: O=C(CCN1CCN(c2cc3c(cc2F)c(=O)c(C(=O)O)cn3C2CC2)CC1)Nc1ccc(S(=O)(=O)Nc2cncc(Cl)n2)cc1
IC50 (Topoisomerase IV): 440 nM
IC50 (DNA gyrase): 1240 nM
MIC (Staphylococcus aureus): 287 µM (≈ 192 µg/mL)
MIC (Escherichia coli): 287 µM (≈ 192 µg/mL)

Compound: NS(=O)(=O)c1ccc(NC(=O)CCN2CCN(c3cc4c(cc3F)c(=O)c(C(=O)O)cn4C3CC3)CC2)cc1
IC50 (Topoisomerase IV): 600 nM
IC50 (DNA gyrase): 1100 nM
MIC (Staphylococcus aureus): 2.99 µM (≈ 1.67 µg/mL)
MIC (Escherichia coli): 0.897 µM (≈ 0.5 µg/mL)

Compound: NS(=O)(=O)c1ccc(/N=N/N2CCN(c3cc4c(cc3F)c(=O)c(C(=O)O)cn4C3CC3)CC2)cc1
IC50 (Topoisomerase IV): 2430 nM
IC50 (DNA gyrase): 3560 nM
MIC (Staphylococcus aureus): 0.324 µM (≈ 0.167 µg/mL)
MIC (Escherichia coli): 0.025 µM (≈ 0.0129 µg/mL)

Compound: O=C(O)c1cn(C2CC2)c2cc(N3CCN(/N=N/c4ccc(S(=O)(=O)Nc5cnc6ccccc6n5)cc4)CC3)c(F)cc2c1=O
IC50 (Topoisomerase IV): 12800 nM
IC50 (DNA gyrase): 5860 nM
MIC (Staphylococcus aureus): 5.19 µM (≈ 3.33 µg/mL)
MIC (Escherichia coli): 0.389 µM (≈ 0.25 µg/mL)

Compound: Cc1cc(NS(=O)(=O)c2ccc(NC(=O)C(C)N3CCN(c4cc5c(cc4F)c(=O)c(C(=O)O)cn5C4CC4)CC3)cc2)no1 (stereo unspecified)
IC50 (Topoisomerase IV): 390 nM
IC50 (DNA gyrase): 1270 nM
Activity [1]: Non-Toxic
Activity (Mus musculus): Active
MIC (Staphylococcus aureus): 0.783 µM (≈ 0.5 µg/mL)
MIC (Escherichia coli): 1.04 µM (≈ 0.667 µg/mL)

Compound: O=C(CN1CCN(c2cc3c(cc2F)c(=O)c(C(=O)O)cn3C2CC2)CC1)Nc1ccc(S(=O)(=O)Nc2cncc(Cl)n2)cc1
IC50 (Topoisomerase IV): 2290 nM
IC50 (DNA gyrase): 900 nM
MIC (Staphylococcus aureus): 1.52 µM (≈ 1 µg/mL)
MIC (Escherichia coli): 2.54 µM (≈ 1.67 µg/mL)

Compound: O=C(CCN1CCN(c2cc3c(cc2F)c(=O)c(C(=O)O)cn3C2CC2)CC1)Nc1ccc(S(=O)(=O)Nc2ncccn2)cc1
IC50 (Topoisomerase IV): 1800 nM
IC50 (DNA gyrase): 1990 nM
MIC (Staphylococcus aureus): 1.57 µM (≈ 1 µg/mL)
MIC (Escherichia coli): 2.62 µM (≈ 1.67 µg/mL)

Compound: O=C(CCN1CCN(c2cc3c(cc2F)c(=O)c(C(=O)O)cn3C2CC2)CC1)Nc1ccc(S(=O)(=O)Nc2cnc3ccccc3n2)cc1
IC50 (Topoisomerase IV): 230 nM
IC50 (DNA gyrase): 430 nM
Activity [1]: Non-Toxic
Activity (Mus musculus): Active
MIC (Staphylococcus aureus): 0.972 µM (≈ 0.667 µg/mL)
MIC (Escherichia coli): 0.608 µM (≈ 0.417 µg/mL)

Compound: NS(=O)(=O)c1ccc(NC(=O)CN2CCN(c3cc4c(cc3F)c(=O)c(C(=O)O)cn4C3CC3)CC2)cc1
IC50 (Topoisomerase IV): 3770 nM
IC50 (DNA gyrase): 1320 nM
MIC (Staphylococcus aureus): 7.36 µM (≈ 4 µg/mL)
MIC (Escherichia coli): 12.3 µM (≈ 6.67 µg/mL)

Compound: O=C(CN1CCN(c2cc3c(cc2F)c(=O)c(C(=O)O)cn3C2CC2)CC1)Nc1ccc(S(=O)(=O)Nc2ncccn2)cc1
IC50 (Topoisomerase IV): 2080 nM
IC50 (DNA gyrase): 2870 nM
MIC (Staphylococcus aureus): 1.61 µM (≈ 1 µg/mL)
MIC (Escherichia coli): 1.34 µM (≈ 0.834 µg/mL)

Compound: NC(N)=NS(=O)(=O)c1ccc(/N=N/N2CCN(c3cc4c(cc3F)c(=O)c(C(=O)O)cn4C3CC3)CC2)cc1
IC50 (Topoisomerase IV): 640 nM
IC50 (DNA gyrase): 770 nM
Activity [1]: Non-Toxic
Activity (Mus musculus): Active
MIC (Staphylococcus aureus): 1.8 µM (≈ 1 µg/mL)
MIC (Escherichia coli): 3 µM (≈ 1.67 µg/mL)

Compound: Cc1cc(NS(=O)(=O)c2ccc(/N=N/N3CCN(c4cc5c(cc4F)c(=O)c(C(=O)O)cn5C4CC4)CC3)cc2)no1
IC50 (Topoisomerase IV): 2580 nM
IC50 (DNA gyrase): 1950 nM
MIC (Staphylococcus aureus): 0.839 µM (≈ 0.5 µg/mL)
MIC (Escherichia coli): 1.12 µM (≈ 0.666 µg/mL)
